Test results taken from US7838554B2, “Dihydroxyl compounds and compositions for cholesterol management and related uses” (Esperion Therapeutics, Inc., priority 2003, dated 2010).

Tests used:
obese female Zucker rats = assay: Oral daily treatment of chow fed obese female Zucker rats for fourteen days: serum lipids, glycemic indicators, body weight; assay type: in vivo, rat; conditions: 14 days, n=4
Procedure: In a number of different experiments, illustrative compounds of the invention are administered daily at a dose of up to 100 mg/kg to chow fed obese female Zucker rats for fourteen days in the morning by oral gavage in 1.5% carboxymethylcellulose/0.2% Tween 20 or 20% ethanol/80% polyethylene glycol (dosing vehicles). Animals are weighed daily. Animals are allowed free access to rodent chow and water throughout the study except on days of blood sampling where food is restricted for six hours prior to blood sampling. Blood glucose is determined after the 6 hour fast in the afternoon without anesthesia from a tail vein. Serum is also prepared from pretreatment blood samples subsequently obtained from the orbital venous plexus (with O2/CO2 anesthesia) and following the fourteenth dose at sacrifice from the heart following O2/CO2 anesthesia. Serums are assayed for lipoprotein cholesterol profiles, triglycerides, total cholesterol, Non-HDL cholesterol, HDL cholesterol, the ratio of HDL cholesterol to that of Non-HDL cholesterol, insulin, non-esterified fatty acids, and beta-hydroxy butyric acid. The percent body weight gain and the ratio of liver to body weight is also determined. These are shown as absolute values or as a percent change of the pretreatment values in Table 1

primary rat hepatocytes = assay: Inhibition of lipid synthesis ([1-14C]-acetate incorporation) in primary cultures of rat hepatocytes; assay type: cell-based; conditions: Hepatocyte, 4 hours, 0-300 μM
Procedure: Compounds were tested for inhibition of lipid synthesis in primary cultures of rat hepatocytes. Male Sprague-Dawley rats were anesthetized with intraperitoneal injection of sodium pentobarbital (80 mg/kg). Rat hepatocytes were isolated essentially as described by the method of Seglen (Seglen, P. O. Hepatocyte suspensions and cultures as tools in experimental carcinogenesis. J. Toxicol. Environ. Health 1979, 5, 551-560). Hepatocytes were suspended in Dulbecco's Modified Eagles Medium containing 25 mM D-glucose, 14 mM HEPES, 5 mM L-glutamine, 5 mM leucine, 5 mM alanine, 10 mM lactate, 1 mM pyruvate, 0.2% bovine serum albumin, 17.4 mM non-essential amino acids, 20% fetal bovine serum, 100 nM insulin and 20 μg/mL gentamycin) and plated at a density of 1.5×10^5 cells/cm^2 on collagen-coated 96-well plates. Four hours after plating, media was replaced with the same media without serum. […] Lipid synthesis incubation conditions were initially assessed to ensure the linearity of [1-^14C])-acetate incorporation into hepatocyte lipids for up to 4 hours. Hepatocyte lipid synthesis inhibitory activity was assessed during incubations in the presence of 0.25 μCi [1-^14C]-acetate/well (final radiospecific activity in assay is 1 Ci/mol) and 0, 1, 3, 10, 30, 100 or 300 μM of compounds for 4 hours. […] Lipid radioactivity was assessed by scintillation spectroscopy in a Packard TopCount NXT.

[1] = Solubility noted on work-up of the tetraol; assay type: physicochemical
Text: THP-protected bromo alcohol XA was converted into the corresponding Grignard reagent XB following the standard procedure (Vogel, A. I. “Vogel's Textbook of Practical Organic Chemistry”, 5th Edition, Longman, England, 1989, p. 535). Further coupling of this Grignard reagent in situ with succinic dialdehyde Z prepared by acid-catalyzed ring-opening of commercially available 2,5-dimethoxytetrahydrofuran Y (Fakstorp, J.; Raleigh, D.; Schniepp, L. E. J. Am. Chem. Soc., 1950, 72, 869, House, H. O.; Cronin, T. H. J. Org. Chem., 1965, 30, 1061) at 0 to 5° C. occurs smoothly to give the bis(THP-protected) tetraol XC in high yield (92% after flash column chromatography purification). Acidic hydrolysis of XC in methanol/aqueous H2SO4 was completed in two hours to afford tetraol XI). The product is insoluble in dichloromethane and diethyl ether and could be purified by washing with one of these solvents.

melting point	Solubility in water [1]	SMILES	% wt. gain (obese female Zucker rats; 100 mg/kg/day oral gavage)	Glucose, Percent of Pre-treatment (obese female Zucker rats; blood glucose after 6 hour fast, 100 mg/kg/day oral)	BHA, Percent of Pre-treatment (obese female Zucker rats; serum beta-hydroxy butyric acid, 100 mg/kg/day oral)	NEFA, Percent of Pre-treatment (obese female Zucker rats; serum non-esterified fatty acids, 100 mg/kg/day oral)	HDL-C/non-HDL-C (obese female Zucker rats; serum ratio, 100 mg/kg/day oral)	TC, Percent of Pre-treatment (obese female Zucker rats; serum total cholesterol, 100 mg/kg/day oral)	TG, Percent of Pre-treatment (obese female Zucker rats; serum triglycerides, 100 mg/kg/day oral)	HDL-C, Percent of Pre-treatment (obese female Zucker rats; serum, 100 mg/kg/day oral)	Insulin, Percent of Pre-treatment (obese female Zucker rats; serum, 100 mg/kg/day oral)	Non-HDL-C, Percent of Pre-treatment (obese female Zucker rats; serum, 100 mg/kg/day oral)	IC50 (primary rat hepatocytes)
85 to 86 °C		CC(C)(CO)CCCC(O)CCCC(O)CCCC(C)(C)CO (centres unmarked) [Compound 6.2.2, 2,2,14,14-Tetramethylpentadecane-1,6,10,15-tetraol]											
		CC(C)(CO)CCCC(O)CCC(O)CCCC(C)(C)CO (centres unmarked) [Compound A]	13%	11%	73%	143%	1	4%	43%	−19%	70%	30%	1100 nM
96 to 97 °C	practically insoluble	CC(C)(CO)CCCC(O)CCC(O)CCCC(C)(C)CO (centres unmarked) [XI), 2,2,13,13-Tetramethyltetradecan-1,6,9,14-tetraol]											
